# Key:
# Assay type in all cases: in vivo, mice
# [1] = test system: full thickness mouse wounds; experiment: Histology of full thickness mouse wounds (hematoxylin and eosin) after TNP-470 treatment
# Experimental: Full thickness mouse wounds were made in adult mice, the majority of whom were six to eight weeks old and some of whom were fourteen to sixteen weeks old. Mice were pretreated for sixty days with TNP-470, then wounds were made, and healing monitored. Mice were treated with 30 mg/kg TNP-470 administered subcutaneously every other day. Histological micrographs of open mouse wounds harvested at 7, 12, and 17 days post excision were made. The biopsies were fixed, embedded, sectioned and stained with hematoxylin and eosin.
# linear wounds = experiment: Breaking strength (tensile strength) of linear wounds; conditions: for inhibition of breaking strength: systemic, FIG. 3, n=280 mice, statistically significant
# Experimental: FIG. 3 is a graph of breaking strength (tensile strength) of linear wounds after systemic administration of TNP-470 days −20 to 0; days 0 to 4; days 0 to 12; days 5 to 12; and control, measured on days 4, 7 and 12 after wounding. Mice were treated essentially the same as described in Example 1. FIG. 3 (n=280 mice)graphs breaking strength of linear wounds after systemic administration of TNP-470. Breaking strength was inhibited 36% on post wound day 7 and 43% on post wound day 12. This was statistically significant. The wounds were inhibited if TNP-470 was given on post wound days 0, 2, 4 or post wound days 0, 2, 4, 6, 8, and 10.
# [2] = test system: basic fibroblast growth factor (bFGF); experiment: Endogenous basic fibroblast growth factor (bFGF) in the wound; conditions: day 10 after wound; average; p≦0.05
# Experimental: FIG. 1 is a graph of endogenous basic fibroblast growth factor (bFGF)(pg/cm2) over time (days after wounding) of mice treated with TNP-470 (solid circles) and controls that were not treated (open circles). Full thickness mouse wounds were made in adult mice, the majority of whom were six to eight weeks old and some of whom were fourteen to sixteen weeks old. Mice were pretreated for sixty days with TNP-470, then wounds were made, and healing monitored. Mice were treated with 30 mg/kg TNP-470 administered subcutaneously every other day. Mice were treated essentially the same as described in Example 1.
# full thickness wounds = experiment: Wound closure / contraction of full thickness wounds
# Description: FIG. 2 is a graph of percent wounds open over time (days after wounding) for mice treated with TNP-470 for different dosage regimes: pretreatment days −60 to day 0; treated with TNP-470 days 5 to 18; treated with TNP-470 days 0 to 18; and treated with TNP-470 days 0, 2 and 4. Full thickness mouse wounds were made in adult mice, the majority of whom were six to eight weeks old and some of whom were fourteen to sixteen weeks old. Mice were pretreated for sixty days with TNP-470, then wounds were made, and healing monitored. Mice were treated with 30 mg/kg TNP-470 administered subcutaneously every other day. Mice were treated essentially the same as described in Example 1. Histological analysis of the wounds in the control and treated mice compared contraction of full thickness wounds in mice treated with systemic TNP-470 (AGM 1470), every other day after the wound is made, with untreated mice. Treatment with TNP-470 every other day after the wound is made (at a dose identical to that which results in maximal tumor inhibition) causes a 5-day delay in the complete contraction of the wound.
# [3] = 17 days post excision, vs untreated
# [4] = given on post wound days 0, 2, 4, or post wound days 0, 2, 4, 6, 8, and 10
smiles,measurement,setting,value
"CO[C@@H]1[C@H](OC(=O)NC(=O)CCl)CC[C@]2(CO2)[C@H]1[C@@]1(C)O[C@@H]1CC=C(C)C [TNP-470, 0-chloroacetylcarbamoyl-Fumagillol]",blood vessels in healing wound granulation tissue,"[1]; 7 days post excision, 30 mg/kg s.c. every other day, vs untreated",relatively lower density of blood vessels
same,blood vessels in granulation tissue under re-epithelialized surface,"[1]; 12 days post excision, wound not completely closed, vs untreated",fewer vessels with smaller diameters
same,blood vessels in mature granulation tissue of healed wound,[1]; [3],reduction in the number of vessels
same,density of mesenchymal cells in granulation tissue,[1]; [3],continued higher density of mesenchymal cells
same,scar formation (histologic findings),"[1]; overall, 7, 12 and 17 days",severely retarded scar formation
same,breaking strength of wounds,linear wounds; [4],inhibited
same,inhibition of breaking strength,linear wounds; post wound day 7,36%
same,inhibition of breaking strength,linear wounds; post wound day 12,43%
same,reduction of bFGF concentration in wound,[2],37%
same,"wound healing slowed, time to full contraction","full thickness wounds; FIG. 2, n=440 mice, statistically significant",5 days
same,wound healing,full thickness wounds; [4],remained inhibited
same,delay in the complete contraction of the wound,"full thickness wounds; systemic, every other day after the wound is made, dose of maximal tumor inhibition",5 days
